We go through nine compounds from US20090318470A1, “1-SUBSTITUTED-3-(NAPHTHALEN-1-YLSULFONYL)-5-(PIPERAZIN-1-YL)-1H-INDAZOLE COMPOUNDS AS 5-HYDROXYTRYPTAMINE-6 LIGANDS” (Wyeth, priority 2008, published 2009).

The structures appear in SMILES notation. Where a name gives a salt, the structure may show the parent alone. Read-outs that look alike come from different tables or passages of the source. Some results are limits rather than exact numbers.

The target of data set [1] is T1, serotonin 5HT6 receptor subtype (Homo sapiens, UniProt P50406).
T1 construct: host or cells: CHO-Dukx-A2 cells, clone 50-7
The data set is described as follows: 5HT6 Binding Affinity ([3H]-LSD SPA binding).

Data set [2] can be described thus: CNS penetration following a single intraperitoneal dose. The data set is classed as in vivo, Male Long Evans Rats. The note with it: for Kp: male, Long Evans, rat, brain and plasma, read-out: Brain/plasma ratio.
The nature of data set [3]: Pharmacokinetics following a single IV bolus. Also on record: species or system Male Long Evans Rats. The note with it: male, Long Evans, rat, in vivo; single IV bolus at 2 mg/kg, n = 3. The protocol:
(§1) Pharmacokinetics and CNS Penetration of Compounds were Determined Using HPLC Analysis of the Prepared Samples and Presented in Tables 2, 3, & 4 Below
(§2) Male Long Evans Rats were dosed with the candidate drug substance at the dosage amount and route listed above using standard pharmacokinetic procedures (Applied Biopharmaceutics & Pharmacokinetics, Shargel, L and Yu, A, 4th Ed 1999, McGraw-Hill, N.Y.; Welling, P G, Pharmacokinetics, Process and Mathematics, ACS Monograph 185, American Chemical Society 1986, Washington, D.C.; Lee, P and Amidon, G L, Pharmacokinetic Analysis-A Practical Approach, Technomic Pub Co Lancaster Pa. 1996)).

The nature of data set [4]: Microsomal stability, rat. The data set is classed as in vitro ADME. The note with it: Rat microsomes. The procedure:
(§3) Compounds listed in Table 5, column A, are prepared as described in U.S. Pat. No. 7,238,696. Each of the compounds in Table 5, columns A and B, were screen according to the microsomal stability procedure described in Di et al., Journal of Biomolecular Screening 2003:453-462.

Data set [5] in a line: Microsomal stability, human. It is filed as in vitro ADME. The following applies: Human microsomes. The procedure: as §3
Data set [6] in a line: Pharmacokinetics following a single oral dose. The following applies: male, Long Evans, rat, in vivo; for bioavailability: po, 10 mg/kg, Table 1, obtained according to Example 10; for AUC(0-inf): single oral dose of 10 mg/kg. Also noted: species or system Male Long Evans Rats. The protocol:
as §1, §2

Setting [7] is: CHO-Dukx-A2 cells expressing 5HT6, 3 nM [3H]-LSD, Cheng-Prusoff, read-out: 5HT6 Ki.
Setting [8] is: intraperitoneal, 10 mg/mL, Table 1, obtained according to Example 10.
Where [9] appears, read: ip, Table 4, single intraperitoneal dose of 10 mg/kg, n = 3.

T1 sequence (P50406 whole entry): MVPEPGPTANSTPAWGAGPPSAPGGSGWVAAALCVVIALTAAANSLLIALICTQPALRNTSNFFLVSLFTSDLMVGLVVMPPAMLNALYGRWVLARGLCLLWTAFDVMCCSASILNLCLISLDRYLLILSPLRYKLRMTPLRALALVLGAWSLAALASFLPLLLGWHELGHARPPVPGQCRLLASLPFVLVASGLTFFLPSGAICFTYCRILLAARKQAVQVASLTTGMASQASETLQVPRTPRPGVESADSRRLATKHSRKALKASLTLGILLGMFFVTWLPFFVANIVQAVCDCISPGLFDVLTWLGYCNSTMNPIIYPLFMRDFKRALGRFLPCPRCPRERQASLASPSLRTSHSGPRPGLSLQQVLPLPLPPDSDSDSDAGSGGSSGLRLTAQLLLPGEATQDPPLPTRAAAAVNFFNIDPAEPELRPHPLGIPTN

Take `Cn1nc(S(=O)(=O)c2cccc3ccccc23)c2cc(N3CCNCC3)ccc21` [Example 5, 1-Methyl-3-(naphthalen-1-ylsulfonyl)-5-(piperazin-1-yl)-1H-indazole dihydrochloride]: in data set [1] (setting [7]), the inhibition constant (Ki) is 1.6 nM. For the same compound, the Kp in data set [2] (setting [8]) was determined as 0.3.

As to `O=S(=O)(c1cccc2ccccc12)c1nn(Cc2ccccc2)c2ccc(N3CCNCC3)cc12` [Example 2, 1-Benzyl-3-(naphthalene-1-sulfonyl)-5-piperazin-1-yl-1H-indazole dihydrochloride], the Ki in data set [1] (setting [7]) is 7.5 nM. Besides, the results for the area under the curve AUC(0-inf) in data set [3] and in data set [6] were 843 ng·h/mL and 2100 ng·h/mL, respectively. In addition, the “Microsomal Stability” value in data set [4] was found to be 25 min; in data set [5], 13 min. The compound also registered a bioavailability in data set [6] of 50%. For the same compound, the Kp in data set [2] (setting [8]) and in data set [2] (setting [9]) was 0.26 each time.

Turning to `CCn1nc(S(=O)(=O)c2cccc3ccccc23)c2cc(N3CCNCC3)ccc21` [Example 6, 1-Ethyl-3-(naphthalen-1-ylsulfonyl)-5-(piperazin-1-yl)-1H-indazole dihydrochloride], the inhibition constant (Ki) in data set [1] (setting [7]) was found to be 1.9 nM. Also, the Kp in data set [2] (setting [8]) came out at 0.45.

Take `O=S(=O)(c1cccc2ccccc12)c1nn(Cc2cccc(Cl)c2)c2ccc(N3CCNCC3)cc12` [Example 3, 1-(3-Chlorobenzyl)-5-(piperazin-1-yl)-3-(naphthalen-1-ylsulfonyl)-1H-indazole dihydrochloride]: the Ki in data set [1] (setting [7]) came to 23.5 nM.

For `CC(=O)n1nc(S(=O)(=O)c2cccc3ccccc23)c2cc(N3CCNCC3)ccc21` [Example 4, 1-(3-(Naphthalen-1-ylsulfonyl)-5-(piperazin-1-yl)-1H-indazol-1-yl)ethanone hydrochloride], the inhibition constant Ki in data set [1] (setting [7]) turned out to be 1 nM.

For the compound `O=S(=O)(c1cccc2ccccc12)c1n[nH]c2ccc(N3CCNCC3)cc12` [Compound C, 3-(naphthalen-1-ylsulfonyl)-5-(piperazin-1-yl)-1H-indazole dihydrochloride, reference compound], in data set [1], the affinity, expressed as Ki, was 0.8 nM. For the same compound, the area under the curve AUC(0-inf) in data set [3] stood at 390 ng·h/mL; in data set [6] it was 119 ng·h/mL. In data set [6], this compound came in with a bioavailability of 3%. For the same compound, the Kp in data set [2] (setting [8]) and in data set [2] (setting [9]) was less than 0.01 throughout. Moreover, the AUClast entry in data set [2] (matrix brain, single intraperitoneal dose of 10 mg/kg, n = 3) was “Not detectable”.

`CCCn1nc(S(=O)(=O)c2cccc3ccccc23)c2cc(N3CCNCC3)ccc21` [Example 7, 3-(Naphthalen-1-ylsulfonyl)-5-(piperazin-1-yl)-1-propyl-1H-indazole dihydrochloride]: in data set [1] (setting [7]), the Ki is 2.2 nM.

`CC(C)n1nc(S(=O)(=O)c2cccc3ccccc23)c2cc(N3CCNCC3)ccc21` [Example 8, 1-Isopropyl-3-(naphthalen-1-ylsulfonyl)-5-(piperazin-1-yl)-1H-indazole dihydrochloride]: in data set [1] (setting [7]), the inhibition constant (Ki) worked out at 3 nM. In addition, the “Microsomal Stability” value in data set [4] and in data set [5] was more than 30 min throughout. In data set [2] (setting [8]), the Kp came out at 0.36.

Take `CC(C)Cn1nc(S(=O)(=O)c2cccc3ccccc23)c2cc(N3CCNCC3)ccc21` [Example 1, 1-Isobutyl-3-(naphthalen-1-ylsulfonyl)-5-(piperazin-1-yl)-1H-indazole dihydrochloride]: the inhibition constant Ki in data set [1] (setting [7]) came to 4.6 nM. The values for the total exposure AUC(0-inf) in data set [3] and in data set [6] were 378 ng·h/mL and 413 ng·h/mL, respectively. In addition, the entries for the “Microsomal Stability” value in data set [4] and in data set [5] were 24 min and more than 30 min, respectively. The same compound displayed a bioavailability in data set [6] of 22%. Further, the Kp in data set [2] (setting [8]) and in data set [2] (setting [9]) was 0.81 in each case.

By Ki is commonly meant the equilibrium dissociation constant of an inhibitor or competing ligand from its target. The term AUC(0-inf) denotes total exposure, with the tail of the curve extrapolated. By bioavailability is commonly meant the share of a dose that reaches the circulation, judged against a reference dose that is usually intravenous.
